≈ marks a conversion by molar mass, not a printed value. Where two headings read alike, the source gives them in different places.
What was measured:
Format in all cases: cell-based
[1] = system: E. coli ATCC 25922 wild type and mutants; test: MIC, wild type and GSK2251052 resistant mutants; conditions: Escherichia coli
Procedure: (§1) Spontaneous Resistance Frequency was determined in vitro for GSK2251052 and the resistance mutants in E. coli ATCC 25922, K. pneumoniae ATCC 13883, and P. aeruginosa ATCC 27853 strains were characterized. GSK2251052 was prepared as described in U.S. Pat. No. 7,816,344 (the entire contents of which are hereby incorporated by reference herein). LB broth, Mueller Hinton II broth (adjusted), and Difco noble agar were obtained from Becton Dickinson (Cockeysville, Md., USA). M9 minimal broth containing 1×M9 salt, 0.5 μg/ML thiamine, 1 mM MgSO4, 0.1 mM CaCl2, 2% glucose, was obtained from Teknova (Hollister, Calif., USA). Antibacterial agents ciprofloxacin, ceftazidime, chloramphenicol, gentamycin, kanamycin, polymixin B, tobramycin and trimethoprim, and amino acids were obtained from Sigma Chemicals (St. Louis, Mo., USA). Strains were obtained from ATCC (Manassas, Va., USA).
(§2) Susceptibility tests were performed following the recommendations for aerobic bacteria (M7-A7) from the Clinical and Laboratories Standards Institute (CLSI).
(§3) Laboratory generated mutants resistant to GSK2251052 contain mutations in the editing domain of LeuRS. Six to ten GSK2251052 resistant colonies of E. coli ATCC 25922, K. pneumoniae ATCC 13883 and P. aeruginosa ATCC 27853 were selected for further analysis and their MICs to GSK2251052 were determined (Table 4-7).

[2] = system: K. pneumoniae ATCC 13883 wild type and mutants; test: MIC, wild type and GSK2251052 resistant mutants; conditions: Klebsiella pneumoniae
Procedure: as §1, §2, §3

[3] = system: P. aeruginosa ATCC 27853 wild type and mutants; test: MIC, wild type and GSK2251052 resistant mutants; conditions: Pseudomonas aeruginosa
Procedure: as §1, §2, §3

[4] = system: Escherichia coli 1161435 parent and mutant strains B4, B26 and B35; test: Sensitivity to leucine analogs in MH and M9 media
P. aeruginosa = test: In vitro activity against P. aeruginosa clinical isolates; conditions: P. aeruginosa, 2,008 clinical isolates; GSK2251052 based on potential susceptible breakpoint of ≦4 μg/mL
Procedure: GSK2251052 was tested for activity against P. aeruginosa, and its activity was compared to other antibiotics of known activity. The results are shown below in Tables 2a and 2b. Of 2,008 clinical isolates tested (from 2009-2010 subjects, of which 40% were from North America) greater than 90% were susceptible to GSK2251052 based on a potential susceptible breakpoint of ≦4 μg/mL.

Molecule | MIC (sensitivity to leucine analogs) ([4]; 1161435 Parent, M9) [µg/mL] | MIC (sensitivity to leucine analogs) ([4]; 1161435 Parent, MH) [µg/mL] | MIC (sensitivity to leucine analogs) ([4]; B4 (P339L), M9) [µg/mL] | MIC (sensitivity to leucine analogs) ([4]; B4 (P339L), MH) [µg/mL] | MIC (sensitivity to leucine analogs) ([4]; B26 (R334H), M9) [µg/mL] | MIC (sensitivity to leucine analogs) ([4]; B26 (R334H), MH) [µg/mL] | MIC (sensitivity to leucine analogs) ([4]; B35 (D251N), M9) [µg/mL] | MIC (sensitivity to leucine analogs) ([4]; B35 (D251N), MH) [µg/mL] | also measured
NC[C@H]1O[C@H](O[C@H]2[C@H](O)[C@@H](O[C@H]3O[C@H](CO)[C@@H](O)[C@H](N)[C@H]3O)[C@H](N)C[C@@H]2N)[C@H](O)[C@@H](O)[C@@H]1O [Kanamycin] |  |  |  |  |  |  |  |  | MIC ([1]; ATCC25922, E wt, read-out: MICs): 4 µg/mL (≈ 8.26 µM); MIC ([1]; ATCC25922, read-out: MICs, mutant E 101): 4 µg/mL (≈ 8.26 µM); MIC ([1]; ATCC25922, read-out: MICs, mutant E 102): 4 µg/mL (≈ 8.26 µM); MIC ([1]; ATCC25922, read-out: MICs, mutant E 107): 8 µg/mL (≈ 16.5 µM); MIC ([2]; ATCC13883, K wt., read-out: MICs): 2 µg/mL (≈ 4.13 µM); MIC ([2]; ATCC13883, read-out: MICs, mutant K 104): 2 µg/mL (≈ 4.13 µM); MIC ([2]; ATCC13883, read-out: MICs, mutant K 105): 2 µg/mL (≈ 4.13 µM); MIC ([2]; ATCC13883, read-out: MICs, mutant K 107): 2 µg/mL (≈ 4.13 µM); MIC ([2]; ATCC13883, read-out: MICs, mutant K 108): 2 µg/mL (≈ 4.13 µM); MIC ([2]; ATCC13883, read-out: MICs, mutant K 110): 1 µg/mL (≈ 2.06 µM); MIC ([3]; ATCC27853, P wt., read-out: MICs): > 64 µg/mL; MIC ([3]; ATCC27853, read-out: MICs, mutant P 101): > 64 µg/mL; MIC ([3]; ATCC27853, read-out: MICs, mutant P106): > 64 µg/mL; MIC ([3]; ATCC27853, read-out: MICs, mutant P108): > 64 µg/mL
CC(C)[C@H](N)C(=O)O [L-Valine] | > 128 | > 128 | > 128 | > 128 | > 128 | > 128 | > 128 | > 128 | 
CC(CC(N)C(=O)O)C(F)(F)F (racemic) [5,5,5-Trifluoro-DL-Leucine] | 128 | > 128 | 128 | > 128 | 64 | > 128 | 64 | > 128 | 
CSCC[C@H](N)C(=O)O [L-Methionine] | > 128 | > 128 | > 128 | > 128 | > 128 | > 128 | > 128 | > 128 | 
Colistin |  |  |  |  |  |  |  |  | % susceptible (P. aeruginosa): 62.3%
C[C@@H](O)[C@H](N)C(=O)O [L-Threonine] | > 128 | > 128 | > 128 | > 128 | > 128 | > 128 | > 128 | > 128 | 

Source: patent US9889146B2, “Benzoxaborole compounds and uses thereof” (priority 2012, dated 2018)
